Consider 44 molecules from patent publication US7601745B2, “Heterocyclic NF-kB inhibitors” (4SC AG, priority 2004, dated 2009).

The subject of the first assay is A549-NF-κB-SEAP reporter cells. The assay is described as follows: Inhibition of NF-κB-induced inflammation ([…] NINA Instant Assay, SEAP reporter). Format: cell-based. The conditions noted are these: NF-κB inflammation assay. The source says:
For the determination of anti-inflammatory activity of the compounds the […]® NINA Instant Assay from Cell Culture Service GmBH was used. This assay is based on recombinant A549-NF-κB-SEAP reporter cells preseeded in 96-well flat bottom plates. As the transfected reportergen for SEAP (secreted embryonic alkaline phosphatase) is under transcriptional control of a NF-κB-responsive element, the expression of this reporter is activated upon stimulation with TNF-α. SEAP secretion into the culture supernatant can be detected by the chemiluminescent substrate CSPD®. Test compounds that inhibit the NF-κB activation show reduced SEAP activity and reduced luminescent readout.
Following 18 h of reactivation at 37° C., 5% CO2 and 90% relative humidity, the cells were incubated with 0.01 up to 100 μM of test compound for 4.5 h before stimulation with 2 ng/ml TNF-α. After stimulation with TNF-α for 22 h endogenous phosphatases were inactivated and CSPD® substrate was supplied for 40 min. SEAP activity then was quantified by measuring luminescence as relative light units (RLU) using a Tecan Ultra reader. Each data point was recorded in quadruplicates and EC50 values were calculated via fitting function and the Microsoft Excel Solver.
For the molecule `Cc1cc2nc(NC(=O)c3csc(NC(=O)c4ccccc4OC(F)(F)F)n3)[nH]c2cc1C` [compound 25], the “Biological activity (inhibition in the NF-κB inflammation assay)” value is recorded as “+++ (“+++” stands for 90-100% inhibition)”.

Turning to `N=C(NC(=O)c1coc(NC(=O)c2ccc(C(F)(F)F)c(F)c2)n1)Nc1nc2ccccc2[nH]1` [compound 27], the “Biological activity (inhibition in the NF-κB inflammation assay)” value is on record as “+++ (“+++” stands for 90-100% inhibition)”.

Turning to `N=C(NC(=O)c1csc(N2CCN(Cc3ccccc3)CC2)n1)Nc1nc2ccccc2[nH]1` [compound 30], the “Biological activity (inhibition in the NF-κB inflammation assay)” value is on record as “+++ (“+++” stands for 90-100% inhibition)”.

`O=C(Nc1nc2ccccc2[nH]1)c1csc(NC(=O)c2ccccc2OC(F)(F)F)n1` [compound 31]: the “Biological activity (inhibition in the NF-κB inflammation assay)” value is reported as “+++ (“+++” stands for 90-100% inhibition)”.

For `N=C(NC(=O)c1csc(C2CCN(C(=O)c3ccccc3OC(F)(F)F)CC2)n1)Nc1nc2ccccc2[nH]1` [compound 36], the “Biological activity (inhibition in the NF-κB inflammation assay)” value was “+++ (“+++” stands for 90-100% inhibition)”.

Take `Cc1cc2nc(NC(=O)c3coc(NC(=O)c4ccccc4OC(F)(F)F)n3)[nH]c2cc1C` [compound 40]: the “Biological activity (inhibition in the NF-κB inflammation assay)” value is on record as “+++ (“+++” stands for 90-100% inhibition)”.

In the case of `CN1CCN(c2ccc3nc(NC(=O)c4csc(NC(=O)c5ccccc5OC(F)(F)F)n4)sc3c2)CC1` [compound 42], the “Biological activity (inhibition in the NF-κB inflammation assay)” value is “+++ (“+++” stands for 90-100% inhibition)”.

Take `O=C(Nc1nc2ccc([N+](=O)[O-])cc2[nH]1)c1csc(NC(=O)c2ccccc2OC(F)(F)F)n1` [compound 43]: the “Biological activity (inhibition in the NF-κB inflammation assay)” value is “+++ (“+++” stands for 90-100% inhibition)”.

Regarding `N=C(NC(=O)c1csc(NC(=O)c2ccccc2C2CCCCC2)n1)Nc1nc2ccccc2[nH]1` [compound 45], the “Biological activity (inhibition in the NF-κB inflammation assay)” value is recorded as “+++ (“+++” stands for 90-100% inhibition)”.

Turning to `Cn1c(NC(=O)c2csc(NC(=O)c3ccccc3OC(F)(F)F)n2)nc2ccccc21` [compound 46], the “Biological activity (inhibition in the NF-κB inflammation assay)” value is reported as “+++ (“+++” stands for 90-100% inhibition)”.

Turning to `CCCS(=O)(=O)c1ccc2[nH]c(NC(=O)c3csc(NC(=O)c4ccccc4OC(F)(F)F)n3)nc2c1` [compound 47], the “Biological activity (inhibition in the NF-κB inflammation assay)” value is listed as “+++ (“+++” stands for 90-100% inhibition)”.

On to `N=C(NC(=O)c1csc(N2CCOCC2)n1)Nc1nc2ccccc2[nH]1` [compound 49], for which the “Biological activity (inhibition in the NF-κB inflammation assay)” value is “+++ (“+++” stands for 90-100% inhibition)”.

Turning to `N=C(NC(=O)c1csc(NC(=O)c2ccc(C(F)(F)F)cc2)n1)Nc1nc2ccccc2[nH]1` [compound 51], the “Biological activity (inhibition in the NF-κB inflammation assay)” value is reported as “+++ (“+++” stands for 90-100% inhibition)”.

Turning to `CCCS(=O)(=O)c1ccc2[nH]c(NC(=O)c3csc(C4CCN(C(=O)c5ccccc5OC(F)(F)F)CC4)n3)nc2c1` [compound 52], the “Biological activity (inhibition in the NF-κB inflammation assay)” value is given as “+++ (“+++” stands for 90-100% inhibition)”.

For the molecule `NC(=Nc1nc2ccccc2[nH]1)NC(=O)c1csc(NC(=O)c2ccc(C(F)(F)F)cc2F)n1` [compound 53], the “Biological activity (inhibition in the NF-κB inflammation assay)” value was “+++ (“+++” stands for 90-100% inhibition)”.

In the case of `NC(=Nc1nc2ccccc2[nH]1)NC(=O)c1csc(NC(=O)Nc2ccccc2OC(F)(F)F)n1` [compound 54], the “Biological activity (inhibition in the NF-κB inflammation assay)” value was “+++ (“+++” stands for 90-100% inhibition)”.

On to `NC(=Nc1nc2ccccc2[nH]1)NC(=O)c1csc(NC(=O)c2ccc(C(F)(F)F)c(F)c2)n1` [compound 56], for which the “Biological activity (inhibition in the NF-κB inflammation assay)” value was “+++ (“+++” stands for 90-100% inhibition)”.

In the case of `NC(=Nc1nc2ccccc2[nH]1)NC(=O)c1csc(NC(=O)c2c(F)cccc2F)n1` [compound 57], the “Biological activity (inhibition in the NF-κB inflammation assay)” value is given as “+++ (“+++” stands for 90-100% inhibition)”.

The assay is the same for the next values; noted with them: compounds of formula (I); TNF-α stimulated reporter cells; test concentration not given.
As to `COc1ccc(OC)c(N2CCC(c3nc(C(=O)N4CCN(c5cccc(C(F)(F)F)c5)CC4)cs3)CC2)c1` [compound 29], the “Biological activity (NF-κB inflammation assay, inhibition)” value is reported as “++ (“++” means 80-90%)”.

As to `O=C(c1csc(C2CCN(CCC(c3ccccc3)c3ccccc3)CC2)n1)N1CCN(c2cccc(C(F)(F)F)c2)CC1` [compound 35], the “Biological activity (NF-κB inflammation assay, inhibition)” value is listed as “+++ (“+++” stands for 90-100% inhibition)”.

Regarding `N#Cc1ccc(C(=O)N2CCC(c3nc(C(=O)N4CCN(c5cccc(C(F)(F)F)c5)CC4)cs3)CC2)cc1` [compound 70], the “Biological activity (NF-κB inflammation assay, inhibition)” value is on record as “++ (“++” means 80-90%)”.

The assay is the same for the next values; noted with them: compounds of formula (II); TNF-α stimulated reporter cells; test concentration not given.
As to `O=C(Nc1nc(C(=O)N2CCN(c3cccc(C(F)(F)F)c3)CC2)cs1)c1ccccc1OC(F)(F)F` [compound 32], the “Biological activity (NF-κB inflammation assay, inhibition)” value is “+++ (“+++” stands for 90-100% inhibition)”.

As to `O=C(CCC1CCCC1)Nc1nc(C(=O)N2CCN(c3cccc(C(F)(F)F)c3)CC2)cs1` [compound 33], the “Biological activity (NF-κB inflammation assay, inhibition)” value is on record as “+++ (“+++” stands for 90-100% inhibition)”.

For the molecule `O=C(Nc1nc(C(=O)N2CCN(c3cccc(C(F)(F)F)c3)CC2)cs1)c1ccc(C(F)(F)F)c(F)c1` [compound 34], the “Biological activity (NF-κB inflammation assay, inhibition)” value is recorded as “+++ (“+++” stands for 90-100% inhibition)”.

For `O=C(CCC1CCCC1)N1CCN(c2nc(C(=O)N3CCN(c4cccc(C(F)(F)F)c4)CC3)cs2)CC1` [compound 37], the “Biological activity (NF-κB inflammation assay, inhibition)” value was “+++ (“+++” stands for 90-100% inhibition)”.

Regarding `COc1ccccc1C(=O)N1CCN(c2nc(C(=O)N3CCN(c4cccc(C(F)(F)F)c4)CC3)cs2)CC1` [compound 38], the “Biological activity (NF-κB inflammation assay, inhibition)” value is “+++ (“+++” stands for 90-100% inhibition)”.

Consider `O=C(c1csc(N2CCN(C(=O)c3ccccc3OC(F)(F)F)CC2)n1)N1CCN(c2cccc(C(F)(F)F)c2)CC1` [compound 39], for which the “Biological activity (NF-κB inflammation assay, inhibition)” value is on record as “+++ (“+++” stands for 90-100% inhibition)”.

Take `O=C(Nc1nc(C(=O)N2CCN(c3ccc(Cl)c(Cl)c3)CC2)cs1)c1ccccc1OC(F)(F)F` [compound 41]: the “Biological activity (NF-κB inflammation assay, inhibition)” value is on record as “+++ (“+++” stands for 90-100% inhibition)”.

For the molecule `COc1ccccc1N1CCN(C(=O)c2csc(NC(=O)c3ccccc3OC(F)(F)F)n2)CC1` [compound 44], the “Biological activity (NF-κB inflammation assay, inhibition)” value was “++ (“++” means 80-90%)”.

Turning to `O=C(Nc1nc(C(=O)N2CCN(c3cccc(C(F)(F)F)c3)CC2)cs1)Nc1ccccc1OC(F)(F)F` [compound 55], the “Biological activity (NF-κB inflammation assay, inhibition)” value is given as “+++ (“+++” stands for 90-100% inhibition)”.

On to `O=C(Nc1nc(C(=O)N2CCN(C(c3ccccc3)c3ccccc3)CC2)cs1)c1ccccc1OC(F)(F)F` [compound 58], for which the “Biological activity (NF-κB inflammation assay, inhibition)” value is “++ (“++” means 80-90%)”.

As to `O=C(c1cc(C(F)(F)F)cc(C(F)(F)F)c1)N1CCN(c2nc(C(=O)N3CCN(c4cccc(C(F)(F)F)c4)CC3)cs2)CC1` [compound 59], the “Biological activity (NF-κB inflammation assay, inhibition)” value is recorded as “+ (“+” stands for 50-80% inhibition)”.

Take `O=C(c1ccc(C(F)(F)F)c(F)c1)N1CCN(c2nc(C(=O)N3CCN(c4cccc(C(F)(F)F)c4)CC3)cs2)CC1` [compound 60]: the “Biological activity (NF-κB inflammation assay, inhibition)” value is on record as “+++ (“+++” stands for 90-100% inhibition)”.

With `N#Cc1ccc(C(=O)N2CCN(c3nc(C(=O)N4CCN(c5cccc(C(F)(F)F)c5)CC4)cs3)CC2)cc1` [compound 61], the “Biological activity (NF-κB inflammation assay, inhibition)” value is “+++ (“+++” stands for 90-100% inhibition)”.

As for `N#Cc1ccc(CN2CCN(c3nc(C(=O)N4CCN(c5cccc(C(F)(F)F)c5)CC4)cs3)CC2)cc1` [compound 62], the “Biological activity (NF-κB inflammation assay, inhibition)” value was “+++ (“+++” stands for 90-100% inhibition)”.

In the case of `CC(C)(C)OC(=O)N1CCN(c2nc(C(=O)N3CCN(c4cccc(C(F)(F)F)c4)CC3)cs2)CC1` [compound 63], the “Biological activity (NF-κB inflammation assay, inhibition)” value is listed as “++ (“++” means 80-90%)”.

With `O=C(c1csc(N2CCNCC2)n1)N1CCN(c2cccc(C(F)(F)F)c2)CC1` [compound 64], the “Biological activity (NF-κB inflammation assay, inhibition)” value is “+ (“+” stands for 50-80% inhibition)”.

Regarding `COc1ccccc1N1CCN(c2nc(C(=O)N3CCN(c4cccc(C(F)(F)F)c4)CC3)cs2)CC1` [compound 65], the “Biological activity (NF-κB inflammation assay, inhibition)” value is given as “++ (“++” means 80-90%)”.

For the molecule `CC(=O)c1ccc(N2CCN(c3nc(C(=O)N4CCN(c5cccc(C(F)(F)F)c5)CC4)cs3)CC2)cc1` [compound 66], the “Biological activity (NF-κB inflammation assay, inhibition)” value is listed as “++ (“++” means 80-90%)”.

`O=C(c1csc(N2CCN(c3cccc(C(F)(F)F)c3)CC2)n1)N1CCN(c2cccc(C(F)(F)F)c2)CC1` [compound 67]: the “Biological activity (NF-κB inflammation assay, inhibition)” value is listed as “+ (“+” stands for 50-80% inhibition)”.

Take `O=C(c1csc(N2CCN(c3ccccc3)CC2)n1)N1CCN(c2cccc(C(F)(F)F)c2)CC1` [compound 68]: the “Biological activity (NF-κB inflammation assay, inhibition)” value was “+ (“+” stands for 50-80% inhibition)”.

Regarding `O=C(c1csc(N2CCN(c3ccc(F)cc3)CC2)n1)N1CCN(c2cccc(C(F)(F)F)c2)CC1` [compound 69], the “Biological activity (NF-κB inflammation assay, inhibition)” value is on record as “++ (“++” means 80-90%)”.

For the molecule `O=C(c1csc(N2CCN(Cc3ccccc3)CC2)n1)N1CCN(C(c2ccccc2)c2ccccc2)CC1` [compound 71], the “Biological activity (NF-κB inflammation assay, inhibition)” value is “+++ (“+++” stands for 90-100% inhibition)”.

For `O=C(c1csc(N2CCN(Cc3ccccc3)CC2)n1)N1CCN(c2cccc(C(F)(F)F)c2)CC1` [compound 72], the “Biological activity (NF-κB inflammation assay, inhibition)” value was “+++ (“+++” stands for 90-100% inhibition)”.
